From PubChem BioAssay (NCI)
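Protocol summary: plate cells (96-well), add compound at 5 concentrations, incubate 48 h, interpolate endpoints linearly. GI50: concentration for 50% inhibition of growth. TGI is the concentration that stops growth completely.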

Experiments:
Assay in all cases: NCI tumour cell line growth inhibition, 48 h
SF-268 CNS = system: SF-268 CNS
MOLT-4 leukemia = system: MOLT-4 leukemia
HOP-92 NSCLC = system: HOP-92 NSCLC
NCI-H226 lung = system: NCI-H226 lung
SK-MEL-5 melanoma = system: SK-MEL-5 melanoma
RXF 393 renal = system: RXF 393 renal
SNB-75 CNS = system: SNB-75 CNS
OVCAR-5 ovarian = system: OVCAR-5 ovarian
U251 CNS = system: U251 CNS
SF-295 CNS = system: SF-295 CNS
HCC-2998 colon = system: HCC-2998 colon
SR leukemia = system: SR leukemia
HL-60(TB) leukemia = system: HL-60(TB) leukemia
TK-10 renal = system: TK-10 renal
OVCAR-8 ovarian = system: OVCAR-8 ovarian
NCI-H460 lung = system: NCI-H460 lung
NCI-H522 lung = system: NCI-H522 lung
HCT-15 colon = system: HCT-15 colon
MDA-MB-435 = system: MDA-MB-435
K-562 leukemia = system: K-562 leukemia
NCI-H23 lung = system: NCI-H23 lung
KM12 colon = system: KM12 colon
M14 melanoma = system: M14 melanoma
HCT-116 colon = system: HCT-116 colon
UACC-257 melanoma = system: UACC-257 melanoma
SK-OV-3 ovarian = system: SK-OV-3 ovarian
DU-145 prostate = system: DU-145 prostate
CAKI-1 renal = system: CAKI-1 renal
LOX IMVI melanoma = system: LOX IMVI melanoma
A549 NSCLC = system: A549 NSCLC
T-47D breast = system: T-47D breast
MALME-3M melanoma = system: MALME-3M melanoma
EKVX NSCLC = system: EKVX NSCLC
IGROV1 ovarian = system: IGROV1 ovarian
COLO 205 colon = system: COLO 205 colon
HS 578T breast = system: HS 578T breast
786-0 renal = system: 786-0 renal
SNB-19 CNS = system: SNB-19 CNS
NCI/ADR-RES ovarian = system: NCI/ADR-RES ovarian
CCRF-CEM leukemia = system: CCRF-CEM leukemia
SW-620 colon = system: SW-620 colon
SF-539 CNS = system: SF-539 CNS
UO-31 renal = system: UO-31 renal
HOP-62 NSCLC = system: HOP-62 NSCLC
SK-MEL-28 melanoma = system: SK-MEL-28 melanoma
OVCAR-4 ovarian = system: OVCAR-4 ovarian
SN12C renal = system: SN12C renal
PC-3 prostate = system: PC-3 prostate
A498 renal = system: A498 renal
ACHN renal = system: ACHN renal
UACC-62 melanoma = system: UACC-62 melanoma
OVCAR-3 ovarian = system: OVCAR-3 ovarian
MDA-MB-231 breast = system: MDA-MB-231 breast
RPMI-8226 leukemia = system: RPMI-8226 leukemia
HT29 colon = system: HT29 colon
SK-MEL-2 melanoma = system: SK-MEL-2 melanoma
MCF7 breast = system: MCF7 breast
BT-549 breast = system: BT-549 breast

Work on `C#CCNCCN1C(=O)c2ccc3c4c(ccc(c24)C1=O)C(=O)N(CCNCC#C)C3=O` yielded a GI50 (SF-268 CNS) of 3.78 µM, a TGI (SF-268 CNS) of 24.2 µM and a GI50 (MOLT-4 leukemia) of 3.54 µM. It also gave a TGI (MOLT-4 leukemia) of 16.7 µM, a GI50 (HOP-92 NSCLC) of 7.39 µM and a TGI (HOP-92 NSCLC) of 22.9 µM. For the same compound, the GI50 (NCI-H226 lung) was 2.96 µM, the TGI (NCI-H226 lung) was 12.2 µM and the GI50 (SK-MEL-5 melanoma) was 1.65 µM. It also gave a TGI (SK-MEL-5 melanoma) of 6.56 µM, a GI50 (RXF 393 renal) of 1.79 µM and a TGI (RXF 393 renal) of 9.69 µM. The GI50 (SNB-75 CNS) was 5.95 µM, the TGI (SNB-75 CNS) was 14.5 µM and the GI50 (OVCAR-5 ovarian) was 8.63 µM. For the same compound, the TGI (OVCAR-5 ovarian) was 18.3 µM, the GI50 (U251 CNS) was 3.3 µM and the TGI (U251 CNS) was 10.9 µM. It also gave a GI50 (SF-295 CNS) of 2.15 µM, a TGI (SF-295 CNS) of 15 µM and a GI50 (HCC-2998 colon) of 2.49 µM. It also gave a TGI (HCC-2998 colon) of 10 µM, a GI50 (SR leukemia) of 4.53 µM and a TGI (SR leukemia) of 29.8 µM. The GI50 (HL-60(TB) leukemia) was 8.35 µM, the TGI (HL-60(TB) leukemia) was 25.8 µM and the GI50 (TK-10 renal) was 7.38 µM. It also gave a TGI (TK-10 renal) of 23.8 µM, a GI50 (OVCAR-8 ovarian) of 2.25 µM and a TGI (OVCAR-8 ovarian) of 20.8 µM. It also gave a GI50 (NCI-H460 lung) of 1.86 µM, a TGI (NCI-H460 lung) of 9.68 µM and a GI50 (NCI-H522 lung) of 3.98 µM. For the same compound, the TGI (NCI-H522 lung) was 10.9 µM, the GI50 (HCT-15 colon) was 2.95 µM and the TGI (HCT-15 colon) was 10.6 µM. The GI50 (MDA-MB-435) was 1.52 µM, the TGI (MDA-MB-435) was 5.85 µM and the GI50 (K-562 leukemia) was 5.25 µM. For the same compound, the TGI (K-562 leukemia) was 50 µM, the GI50 (NCI-H23 lung) was 3.56 µM and the TGI (NCI-H23 lung) was 15.6 µM. It also gave a GI50 (KM12 colon) of 3.35 µM, a TGI (KM12 colon) of 11.4 µM and a GI50 (M14 melanoma) of 5.52 µM. For the same compound, the TGI (M14 melanoma) was 12.6 µM, the GI50 (HCT-116 colon) was 1.75 µM and the TGI (HCT-116 colon) was 11.1 µM. It also gave a GI50 (UACC-257 melanoma) of 3.08 µM, a TGI (UACC-257 melanoma) of 9.65 µM and a GI50 (SK-OV-3 ovarian) of 6.3 µM. It also gave a TGI (SK-OV-3 ovarian) of 22.6 µM, a GI50 (DU-145 prostate) of 5.35 µM and a TGI (DU-145 prostate) of 11.8 µM. For the same compound, the GI50 (CAKI-1 renal) was 5.05 µM, the TGI (CAKI-1 renal) was 15.6 µM and the GI50 (LOX IMVI melanoma) was 1.76 µM. For the same compound, the TGI (LOX IMVI melanoma) was 8.08 µM, the GI50 (A549 NSCLC) was 2.69 µM and the TGI (A549 NSCLC) was 11.6 µM. It also gave a GI50 (T-47D breast) of 4.16 µM, a TGI (T-47D breast) of 14.8 µM and a GI50 (MALME-3M melanoma) of 0.903 µM. It also gave a TGI (MALME-3M melanoma) of 3.14 µM, a GI50 (EKVX NSCLC) of 5.93 µM and a TGI (EKVX NSCLC) of 13.6 µM. The GI50 (IGROV1 ovarian) was 2.07 µM, the TGI (IGROV1 ovarian) was 10.4 µM and the GI50 (COLO 205 colon) was 2 µM. For the same compound, the TGI (COLO 205 colon) was 6.92 µM, the GI50 (HS 578T breast) was 8.35 µM and the TGI (HS 578T breast) was 29.2 µM. It also gave a GI50 (786-0 renal) of 6.1 µM, a TGI (786-0 renal) of 26.5 µM and a GI50 (SNB-19 CNS) of 3.56 µM. It also gave a TGI (SNB-19 CNS) of 10.6 µM, a GI50 (NCI/ADR-RES ovarian) of 4.07 µM and a TGI (NCI/ADR-RES ovarian) of 24.4 µM. It also gave a GI50 (CCRF-CEM leukemia) of 5.19 µM, a TGI (CCRF-CEM leukemia) of 25 µM and a GI50 (SW-620 colon) of 1.92 µM. The TGI (SW-620 colon) was 11.8 µM, the GI50 (SF-539 CNS) was 4.76 µM and the TGI (SF-539 CNS) was 11.2 µM. It also gave a GI50 (UO-31 renal) of 3.09 µM, a TGI (UO-31 renal) of 12.3 µM and a GI50 (HOP-62 NSCLC) of 4.1 µM. It also gave a TGI (HOP-62 NSCLC) of 14.9 µM, a GI50 (SK-MEL-28 melanoma) of 10.4 µM and a TGI (SK-MEL-28 melanoma) of 27.6 µM. For the same compound, the GI50 (OVCAR-4 ovarian) was 1.96 µM, the TGI (OVCAR-4 ovarian) was 7.47 µM and the GI50 (SN12C renal) was 2.62 µM. It also gave a TGI (SN12C renal) of 9.32 µM, a GI50 (PC-3 prostate) of 7.09 µM and a TGI (PC-3 prostate) of 21.2 µM. It also gave a GI50 (A498 renal) of 7.14 µM, a TGI (A498 renal) of 14.1 µM and a GI50 (ACHN renal) of 2.63 µM. It also gave a TGI (ACHN renal) of 9.8 µM, a GI50 (UACC-62 melanoma) of 1.71 µM and a TGI (UACC-62 melanoma) of 6.68 µM. For the same compound, the GI50 (OVCAR-3 ovarian) was 1.52 µM, the TGI (OVCAR-3 ovarian) was 4.22 µM and the GI50 (MDA-MB-231 breast) was 5.24 µM. The TGI (MDA-MB-231 breast) was 13.6 µM, the GI50 (RPMI-8226 leukemia) was 10.6 µM and the TGI (RPMI-8226 leukemia) was 43.2 µM. It also gave a GI50 (HT29 colon) of 1.65 µM, a TGI (HT29 colon) of 6.2 µM and a GI50 (SK-MEL-2 melanoma) of 6.57 µM. It also gave a TGI (SK-MEL-2 melanoma) of 14.1 µM, a GI50 (MCF7 breast) of 2.67 µM and a TGI (MCF7 breast) of 13.4 µM. The GI50 (BT-549 breast) was 7.27 µM and the TGI (BT-549 breast) was 14.7 µM.
